In publication PMC10775177, “Application of the C3-Methyltransferase StspM1 for the Synthesis of the Natural Pyrroloindole Motif” (ACS Catalysis, 2023):

What was measured:
StspM1 = tested on: T1, StspM1; assay: MTase-Glo bioluminescence assay (SAH formation), Michaelis-Menten; type: biochemical, Streptomyces sp. HPH0547
T1 construct: recombinant from E. coli BL21 Gold (DE3), Ni-NTA purified

[1] = biological target: C3-methyltransferase StspM1 from Streptomyces sp. HPH0547 (Streptomyces sp. HPH0547); assay: SEC; size exclusion chromatography to determine the oligomerization state; measured weight 70.5 kDa against 61.8 kDa for a dimer

O=C1N[C@@H](Cc2c[nH]c3ccccc23)C(=O)N[C@H]1Cc1c[nH]c2ccccc12 [7a, LL-cWW]
Km (StspM1; first methylation, 1.5 μM enzyme, co-substrate SAM fixed at 50 μM, cWW 0.2-200 μM): 3.86 µM

O=C1N[C@H](Cc2c[nH]c3ccccc23)C(=O)N[C@@H]1Cc1c[nH]c2ccccc12 [7b, DD-cWW]
Km (StspM1; first methylation, 1.5 μM enzyme, co-substrate SAM fixed at 50 μM, cWW 0.2-200 μM, compound label misprinted as 7c): 14.8 µM

C3-methyltransferase StspM1 from Streptomyces sp. HPH0547 (enzyme)
stoichiometry N [1]: 2

C[C@@]12C[C@H]3C(=O)N[C@@H](Cc4c[nH]c5ccccc45)C(=O)N3[C@@H]1Nc1ccccc12 [compound 14, single-methylated LL-cWW]
Km (StspM1; second methylation step): 32.5 µM
